{"source": "patent US20100329994A1", "about": "“Use of Deuterium Dioxide for Treating Hyperproliferative Skin Diseases” (priority 2006, published 2010)", "key": {"[1]": {"system": "human TE 354.T epithelial cell lines derived from the human basal-cell carcinoma", "experiment": "Proliferation rate (average cell-doubling rate) of human basal-cell carcinoma cell line in culture", "format": "cell-based", "from_the_text": "(§1) The influence of D2O and H2O on the proliferation rate of carcinoma cells and normal cells was investigated on cell cultures. For this purpose, human TE 354.T epithelial cell lines derived from the human basal-cell carcinoma (American Type Culture Collection (ATCC), Rockville, USA) were used. Normal human epithelial cell lines from the skin of the same individual (TE 353.sk from ATCC) were used as control. The cells were transferred into 96-well cell culture plates (10^4 cells per well) and allowed to grow to subconfluence. The medium used for this purpose was Dulbecco's modified Eagles medium (DMEM) to which 10% heat-deactivated fetal calf serum (LGC Promochem, Wesel, Germany) was added. The medium was changed, for the first time 2 days after introduction of the cells and then every 48 hours. At the subconfluent stage of the cell culture of the two cell lines, 30% D2O, based on the complete medium, was added to the medium. […] From these values, the average cell-doubling rate n was determined from the gradient of a graphical plot of log {cell count} vs. time in accordance with the equation n=3.32 (log Nt−log N0). Here, Nt is the cell count measured after time t, and N0 is the cell count determined at the time when D2O or H2O was added (zero point measurement). The average cell-doubling rate was determined by averaging the results over in each case 6 wells per time point."}, "[2]": {"system": "normal human epithelial cell lines from the skin (TE 353.sk)", "experiment": "Proliferation rate (average cell-doubling rate) of normal human skin epithelial cell line in culture", "details": "30% D2O based on the complete medium, counted from 48 h then every 24 h for a week, 6 wells", "from_the_text": "as §1"}}}
{"molecule": "[2H]O[2H]", "note": "[D2O, deuterium dioxide]", "values": [{"measurement": "reduction in <n> for the carcinoma cells compared with normal cells", "setting": "[1]; 30% D2O added to medium, versus H2O", "value": "disproportionately large reduction"}, {"measurement": "average cell-doubling rate <n> D2O, carcinoma cells", "setting": "[1]; 30% D2O based on the complete medium, TE 354.T, counted from 48 h then every 24 h for a week, 6 wells", "value": "0.23 ± 0.02"}, {"measurement": "average cell-doubling rate <n> D2O, normal cells", "setting": "[2]", "value": "0.41 ± 0.04"}]}
